The values that follow come from patent US8791102B2, “Acetanilide sphingosine-1-phosphate receptor antagonists” (Exelixis, Inc., priority 2008, dated 2014).

For this assay, the target named is T1, human S1P1 receptors (Homo sapiens, UniProt P21453).
T1 construct: host or cells: HEK293
Nature of the assay: S1P1R antagonist assay (fluorescent membrane potential dye, cAMP readout). In kind it is cell-based. To be noted: HEK293 cells expressing human S1P1 receptors and CNG channel; 500 nM NECA; S1P1R agonist 10 nM; 90 minutes; read-out: EC50 or IC50 value. The text has this: The S1P1R antagonist assay is a fluorescent membrane potential dye measurement assay, indicative of intracellular cAMP changes due to G protein-coupled receptor activation. HEK293 cells engineered to express human S1P1 receptors and a cyclic nucleotide-gated (CNG) channel are obtained from BD Biosciences, 80300-250. The CNG channels are activated by elevated levels of cAMP, resulting in ion flux and cell membrane depolarization. Membrane depolarization is detected with a membrane potential dye. Stimulation of the cells with 5′-(N-ethylcarboxamido)adenosine (NECA), an A2b receptor agonist (Sigma, E2387), elicits an A2bR-dependent increase in cAMP.
Subsequent exposure of the cells to a S1P1R agonist suppresses the NECA induced increase in cAMP through S1P1R-specific signaling by inhibiting adenylyl cyclase and the formation of cAMP from ATP. The degree to which a test compound overcomes the S1P1R agonist suppression of the NECA induced increase in cAMP is a measure of S1P1R antagonist activity. Antagonist activity is quantified as the IC50 (i.e., the concentration needed to elicited one-half of the maximum response of the test compound) and/or as the EC50 (i.e., the concentration needed to elicited one-half of the NECA induced stimulation).
Day 1: Freshly thawed cells were plated into 384-well plates (Corning, 3683) at a density of 14,000 cells/well in 20 μL, complete media and incubated for 16 hours at 37° C., 5% CO2 and 99% relative humidity. Complete media included Dulbecco's modified Eagle's medium (Invitrogen, 11965-092), 10% Fetal bovine serum (Hyclone, SH30071.03), 250 μg/mL geneticin (Invitrogen, 10131-027), and 1 μg/mL Puromycin (Fluka, 82595).
Day 2: Membrane potential dye (20 μL, BD Biosciences, 341833) was added to each well and the plates were incubated for 2.5 hours at ambient temperature. Test compounds (20 μL) were added to the wells at various concentrations (≦10 μM, 1 to 3 dilutions) in a NECA base solution and incubated for 90 minutes in the presence of the S1P1R agonist {4-((4-phenyl-5-trifluoromethyl-2-thienyl)methoxy)benzyl}-3-azetidinecarboxylic acid (10 nM). The NECA-base solution contained Dulbecco's phosphate-buffered saline (Invitrogen, 14190-136), 2.5% DMSO (Fluka, 41648), 25 μM Ro 20-1724 (Sigma, B8279), and 500 nM NECA).
Assay plates were read with a PerkinElmer EnVision reader (Excitation 350 nm, Emission 590 nm) at time T=0 minutes, before compound addition and at time T=90 minutes. The signal was calculated as the ratio T90/T0. Data was analyzed in ActivityBase XE and graphs showing log of compound concentration (X-axis) vs. % activity (Y-axis) were generated for IC50 determinations. Percent activity was calculated with the following formula: (Signal−Agonist Control Signal)/(NECA Control Signal−Agonist Control Signal)×100.

T1 sequence (P21453 whole entry): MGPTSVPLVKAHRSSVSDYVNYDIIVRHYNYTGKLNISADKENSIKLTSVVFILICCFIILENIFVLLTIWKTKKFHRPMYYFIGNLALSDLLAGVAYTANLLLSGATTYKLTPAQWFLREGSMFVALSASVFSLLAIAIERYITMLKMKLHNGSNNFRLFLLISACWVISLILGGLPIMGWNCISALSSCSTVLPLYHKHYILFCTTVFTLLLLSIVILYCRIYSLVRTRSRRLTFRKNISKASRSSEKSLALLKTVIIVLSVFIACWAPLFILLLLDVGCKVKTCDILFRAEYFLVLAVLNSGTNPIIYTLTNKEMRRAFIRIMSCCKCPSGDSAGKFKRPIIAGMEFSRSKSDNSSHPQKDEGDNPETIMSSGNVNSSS

Broadly, the IC50 is the concentration that gives 50% inhibition. For `O=C(Cc1cccc(Cl)c1)NC(COCc1ccccc1)C(=O)Nc1ccc(Oc2ccccc2)cc1` (centres unmarked) [Compound 377, N-(2-oxo-1-{[(phenylmethyl)oxy]methyl}-2-{[4-(phenyloxy)phenyl]amino}ethyl)-2-(3-chlorophenyl)acetamide], the IC50 lay in the range of 300 to 1000 nM.
Then `O=C(NC(COCc1ccccc1)C(=O)Nc1ccc(Oc2ccccc2)cc1)c1cccc(Cl)c1` (centres unmarked) [Compound 275, 3-chloro-N-(2-oxo-1-{[(phenylmethyl)oxy]methyl}-2-{[4-(phenyloxy)phenyl]amino}ethyl)benzamide], with above 1000 nM; and `COC(=O)CCC(=O)N1C[C@H](Cc2ccccc2)C[C@H]1C(=O)Nc1ccc(Oc2ccc(F)cc2)cc1` [Compound 125, methyl 4-((2S,4R)-4-benzyl-2-(4-(4-fluorophenoxy)phenylcarbamoyl)pyrrolidin-1-yl)-4-oxobutanoate], with at most 300 nM; and `O=C(Nc1ccc(Oc2ccccc2)cc1)C(COCc1ccccc1)NC(=O)[C@H]1CCCO1` (stereo partly drawn) [Compound 23, (2R)—N-(3-(benzyloxy)-1-oxo-1-(4-phenoxyphenylamino)propan-2-yl)tetrahydrofuran-2-carboxamide], with above 1000 nM.
Regarding `Cc1cc(Oc2ccc(F)cc2)ccc1NC(=O)[C@H](COCc1ccccc1)NC(=O)Cc1cnc[nH]1` [Compound 47, (S)-2-(2-(1H-imidazol-5-yl)acetamido)-3-(benzyloxy)-N-(4-(4-fluorophenoxy)-2-methylphenyl)propanamide], the IC50 was above 1000 nM.
As to `O=C(NC(COCc1ccccc1)C(=O)Nc1ccc(Oc2ccccc2)cc1)C(=O)c1ccccc1` (centres unmarked) [Compound 324, N-(2-oxo-1-{[(phenylmethyl)oxy]methyl}-2-{[4-(phenyloxy)phenyl]amino}ethyl)-2-oxo-2-phenylacetamide], the IC50 is above 1000 nM.
Turning to `O=C(Nc1ccc(Oc2ccc(F)cc2)cc1)[C@@H]1C[C@@H](Cc2ccc(Cl)s2)CN1C(=O)Cn1nccn1` [Compound 66, (2S,4S)-1-(2-(2H-1,2,3-triazol-2-yl)acetyl)-4-((5-chlorothien-2-yl)methyl)-N-(4-(4-fluorophenoxy)phenyl)pyrrolidine-2-carboxamide], the IC50 was at most 300 nM.
`Cc1cc(F)ccc1Oc1ccc(NC(=O)[C@@H]2C[C@@H](Cc3ccc(F)cc3)CN2C(=O)Cn2cncn2)cc1` [Compound 74, (2S,4R)-1-(2-(1H-1,2,4-triazol-1-yl)acetyl)-N-(4-(4-fluoro-2-methylphenoxy)phenyl)-4-(4-fluorobenzyl)pyrrolidine-2-carboxamide]: the concentration for half-maximal inhibition (IC50) was at most 300 nM.
`CC(=O)N[C@@H](COCc1ccc(F)cc1)C(=O)Nc1ccc(Oc2ccc(F)cc2)cc1` [Compound 164, (S)-2-acetamido-3-(4-fluorobenzyloxy)-N-(4-(4-fluorophenoxy)phenyl)propanamide]: the IC50 was at most 300 nM.
Take `O=C(Nc1ccc(Oc2ccc(F)cc2)cc1)[C@@H]1C[C@@H](Cc2ccc(Cl)s2)CN1C(=O)Cn1cncn1` [Compound 67, (2S,4S)-1-(2-(1H-1,2,4-triazol-1-yl)acetyl)-4-((5-chlorothien-2-yl)methyl)-N-(4-(4-fluorophenoxy)phenyl)pyrrolidine-2-carboxamide]: the IC50 is at most 300 nM.
Take `O=C(CN1CCN(Cc2c(F)cccc2Cl)CC1)N[C@@H](COCc1ccccc1)C(=O)Nc1ccc(Oc2ccc(F)cc2)cc1` [Compound 239, (S)-3-(benzyloxy)-2-(2-(4-(2-chloro-6-fluorobenzyl)piperazin-1-yl)acetamido)-N-(4-(4-fluorophenoxy)phenyl)propanamide]: the IC50 is at most 300 nM.
Regarding `O=C(Cn1cncn1)N[C@@H](COCc1ccccc1OC(F)(F)F)C(=O)Nc1ccc(Oc2ccc(F)cc2)cc1` [Compound 139, (S)-2-(2-(1H-1,2,4-triazol-1-yl)acetamido)-N-(4-(4-fluorophenoxy)phenyl)-3-(2-(trifluoromethoxy)benzyloxy)propanamide], the IC50 was at most 300 nM.
With `Cc1ccc(C(=O)NC(COCc2ccccc2)C(=O)Nc2ccc(Oc3ccccc3)cc2)cc1C` (centres unmarked) [Compound 279, 3,4-dimethyl-N-(2-oxo-1-{[(phenylmethyl)oxy]methyl}-2-{[4-(phenyloxy)phenyl]amino}ethyl)benzamide], the IC50 is above 1000 nM.
On to `O=C(NC(COCc1ccccc1)C(=O)Nc1ccc(Oc2ccccc2)cc1)c1ccccc1Cl` (centres unmarked) [Compound 274, 2-chloro-N-(2-oxo-1-{[(phenylmethyl)oxy]methyl}-2-{[4-(phenyloxy)phenyl]amino}ethyl)benzamide], for which the IC50 is above 1000 nM.
Then `O=C(Cc1cnc[nH]1)N[C@@H](COCc1ccccc1)C(=O)Nc1ccc(Oc2ccc(Cl)cc2)cc1` [Compound 145, (S)-2-(2-(1H-imidazol-5-yl)acetamido)-3-benzyloxy-N-(4-(4-chlorophenoxy)phenyl)propanamide], with at most 300 nM.
Then `Cc1cccc(C(=O)NC(COCc2ccccc2)C(=O)Nc2ccc(Oc3ccccc3)cc2)c1[N+](=O)[O-]` (centres unmarked) [Compound 189, N-(3-(benzyloxy)-1-oxo-1-(4-phenoxyphenylamino)propan-2-yl)-3-methyl-2-nitrobenzamide], with 300 to 1000 nM; and `COc1cccc(C[C@@H]2C[C@@H](C(=O)Nc3ccc(Oc4ccc(F)cc4)cc3)N(C(=O)Cn3nccn3)C2)c1` [Compound 69, (2S,4R)-1-(2-(2H-1,2,3-triazol-2-yl)acetyl)-N-(4-(4-fluorophenoxy)phenyl)-4-(3-methoxybenzyl)pyrrolidine-2-carboxamide], with at most 300 nM; and `O=C(Cc1cnc[nH]1)N[C@@H](COCc1ccccc1)C(=O)Nc1ccc(Oc2cccc(Cl)c2)cc1` [Compound 148, (S)-2-(2-(1H-imidazol-4-yl)acetamido)-3-(benzyloxy)-N-(4-(3-chlorophenoxy)phenyl)propanamide], with at most 300 nM.
Then `O=C(NC(COCc1ccccc1)C(=O)Nc1ccc(Oc2ccccc2)cc1)c1cnc2ccccc2c1` (centres unmarked) [Compound 350, N-(2-oxo-1-{[(phenylmethyl)oxy]methyl}-2-{[4-(phenyloxy)phenyl]amino}ethyl)quinoline-3-carboxamide], with above 1000 nM; and `Cc1ccc(OCC(=O)NC(COCc2ccccc2)C(=O)Nc2ccc(Oc3ccccc3)cc2)cc1` (centres unmarked) [Compound 393, N-(2-oxo-1-{[(phenylmethyl)oxy]methyl}-2-{[4-(phenyloxy)phenyl]amino}ethyl)-2-(p-tolyloxy)acetamide], with above 1000 nM; and `CC(=O)O[C@@H](C)C(=O)NC(COCc1ccccc1)C(=O)Nc1ccc(Oc2ccccc2)cc1` (stereo partly drawn) [Compound 25, (2S)-1-(3-(benzyloxy)-1-oxo-1-(4-phenoxyphenylamino)propan-2-ylamino)-1-oxopropan-2-yl acetate], with above 1000 nM.
As for `O=C(Nc1ccc(Oc2ccc(F)cc2)cc1)[C@@H]1C[C@@H](Cc2ccccc2)CN1C(=O)[C@H](O)c1ccccc1` [Compound 40, (2S,4R)-4-benzyl-N-(4-(4-fluorophenoxy)phenyl)-1-((R)-2-hydroxy-2-phenylacetyl)pyrrolidine-2-carboxamide], the IC50 is at most 300 nM.
As for `CN(C(=O)Cc1c[nH]cn1)[C@@H](COCc1ccccc1)C(=O)Nc1ccc(Oc2ccccc2)cc1` [Compound 203, (S)-2-(2-(1H-imidazol-4-yl)-N-methylacetamido)-3-(benzyloxy)-N-(4-phenoxyphenyl)propanamide], the IC50 is at most 300 nM.
